Experimental findings from US8796313B2, “Substituted dihydroisoindolones as allosteric modulators of glucokinase” (Janssen Pharmaceutica N.V., priority 2005, dated 2014) are described below.

In the assay the target is T1, human pancreas Glucokinase (GK) (Homo sapiens, UniProt P35557).
T1 construct: His6; made in house; host or cells: Escherichia coli
T1 sequence (P35557 1-465): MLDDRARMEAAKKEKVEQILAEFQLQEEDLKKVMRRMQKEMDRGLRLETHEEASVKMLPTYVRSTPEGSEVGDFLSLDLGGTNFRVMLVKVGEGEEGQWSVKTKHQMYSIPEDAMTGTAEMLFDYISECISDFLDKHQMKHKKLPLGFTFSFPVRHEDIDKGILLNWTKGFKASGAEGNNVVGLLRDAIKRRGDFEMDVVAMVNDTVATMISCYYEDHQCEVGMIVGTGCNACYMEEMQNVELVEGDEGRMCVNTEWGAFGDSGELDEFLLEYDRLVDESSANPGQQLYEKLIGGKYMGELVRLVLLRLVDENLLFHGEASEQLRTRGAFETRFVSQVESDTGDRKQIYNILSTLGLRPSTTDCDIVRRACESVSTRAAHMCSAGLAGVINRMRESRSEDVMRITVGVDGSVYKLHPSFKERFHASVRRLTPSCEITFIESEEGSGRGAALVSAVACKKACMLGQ
Briefly: Glucokinase enzyme assay, pancreas GK. Format: biochemical. Conditions: for activation at 50 µM: increase in GK activity above vehicle control, compound 50 μM, 12 mM glucose; for EC50: concentration that produces 50% activation above vehicle control; for EC100%: concentration that produces 100% activation above vehicle control. From the text: An enzymatic Glucokinase (GK) assay using purified recombinant human liver/pancreas enzyme was used to evaluate the effects of potential small molecule modulators.
In this assay, GK catalyzes glucose phosphorylation in the presence of ATP. The product of this reaction, glucose-6-phosphate, was then oxidized by an excess of glucose-6-phosphate dehydrogenase to produce gluconate-6-phosphate with concomitant reduction of nicotinamide adenine dinucleotide (NAD). […] Human GK (Liver/Pancreas) was expressed in Escherichia coli as a (His) 6-tagged fusion protein and was purified by metal chelate affinity chromatography. The assay was performed in a final incubation volume of 80 μl in a 96-well clear low UV absorption plates. The incubation mixture consisted of 25 mM HEPES, 2 mM MgSO4, 1 mM dithiothreotol (DTT), 1 mg/mL bovine serum albumin (BSA), 1 mM ATP, 1 mM NAD, and 12 mM glucose, 10 units per mL glucose-6-phosphate dehydrogenase, and +/−300 ng per mL GK. For determination of the affinity (Km) and Vmax, different concentrations of glucose ranging from 0.5 mM to 40 mM were used in the assay; see Grimsby, J., Sarabu, R.; Grippo, J. F.; et. al. Science 2003, 301, 370-373. […] EC50% (μM) was calculated as the effective concentration of the compound that produces 50% activation above the vehicle control, and EC100% (μM) was calculated as the effective concentration of the compound that produces 100% activation above the vehicle control.

Consider `O=C(CC1c2ccccc2C(=O)N1Cc1ccc(F)cc1)Nc1ccc(C(=O)O)cn1` (stereo not drawn) [Compound 6, 6-{2-[2-(4-Fluoro-benzyl)-3-oxo-2,3-dihydro-1H-isoindol-1-yl]-acetylamino}-nicotinic acid], for which the activation at 50 µM is 7.92%.

Consider `O=C(CCC1c2ccccc2C(=O)N1Cc1ccc(F)cc1)Nc1ccc(C(=O)O)cn1` (stereo not drawn) [Compound 7, 6-{3-[2-(4-Fluoro-benzyl)-3-oxo-2,3-dihydro-1H-isoindol-1-yl]-propionylamino}-nicotinic acid], for which the EC50 was 3900 nM, the “EC100%” value was determined as 15 µM and the activation at 50 µM is 153%.

As for `COc1ccc(CN2C(=O)c3ccccc3C2CCC(=O)Nc2ccc(C(=O)O)cn2)cc1` (stereo not drawn) [Compound 8, 6-{3-[2-(4-Methoxy-benzyl)-3-oxo-2,3-dihydro-1H-isoindol-1-yl]-propionylamino}-nicotinic acid], the EC50 turned out to be 3200 nM, the “EC100%” value came to 11 µM and the activation at 50 µM was 167%.

`COC(=O)c1ccc(NC(=O)CCC2c3ccccc3C(=O)N2Cc2ccc(OC)cc2)nc1` (stereo not drawn) [Compound 9, 6-{3-[2-(4-Methoxy-benzyl)-3-oxo-2,3-dihydro-1H-isoindol-1-yl]-propionylamino}-nicotinic acid methyl ester]: the EC50 was determined as 400 nM, the “EC100%” value came out at 1.7 µM and the activation at 50 µM is 172%.

`COc1ccc(CN2C(=O)c3ccccc3C2CCS(=O)(=O)Nc2nccs2)cc1` (stereo not drawn) [Compound 10, 2-[2-(4-Methoxy-benzyl)-3-oxo-2,3-dihydro-1H-isoindol-1-yl]-ethanesulfonic acid thiazol-2-ylamide] showed an activation at 50 µM of 15.8%.

For the compound `O=C(CCC1c2c(F)cccc2C(=O)N1Cc1ccc(F)cc1)Nc1ccc(C(=O)O)cn1` (stereo not drawn) [Compound 11, 6-{3-[7-Fluoro-2-(4-fluoro-benzyl)-3-oxo-2,3-dihydro-1H-isoindol-1-yl]-propionylamino}-nicotinic acid], the EC50 stood at 67 nM, the “EC100%” value is 0.128 µM and the activation at 50 µM stood at 229%.

Turning to `O=C(CCC1c2c(F)cccc2C(=O)N1Cc1ccc(F)cc1)Nc1ccccn1` (stereo not drawn) [Compound 12, 3-[7-Fluoro-2-(4-fluoro-benzyl)-3-oxo-2,3-dihydro-1H-isoindol-1-yl]-N-pyridin-2-vi-propionamide], the EC50 was 94 nM, the “EC100%” value came out at 0.74 µM and the activation at 50 µM is 179%.

Consider `O=C(CCC1c2c(F)cccc2C(=O)N1Cc1ccc(F)cc1)Nc1cnccn1` (stereo not drawn) [Compound 13, 3-[7-Fluoro-2-(4-fluoro-benzyl)-3-oxo-2,3-dihydro-1H-isoindol-1-yl]-N-pyrazin-2-yl-propionamide], for which the EC50 turned out to be 240 nM, the “EC100%” value came out at 0.88 µM and the activation at 50 µM came to 272%.

Turning to `O=C(CCC1c2c(F)cccc2C(=O)N1Cc1ccc(F)cc1)Nc1ccc(F)cn1` (stereo not drawn) [Compound 14, 3-[7-Fluoro-2-(4-fluoro-benzyl)-3-oxo-2,3-dihydro-1H-isoindol-1-yl]-N-(5-fluoro-pyridin-2-yl)-propionamide], the EC50 was found to be 108 nM, the “EC100%” value was 0.699 µM and the activation at 50 µM was found to be 219%.

Consider `O=C(CCC1c2cccc(F)c2C(=O)N1Cc1ccc(F)cc1)Nc1ccc(C(=O)O)cn1` (stereo not drawn) [Compound 15, 6-{3-[4-Fluoro-2-(4-fluoro-benzyl)-3-oxo-2,3-dihydro-1H-isoindol-1-yl]-propionylamino}-nicotinic acid], for which the EC50 amounted to 530 nM, the “EC100%” value amounted to 3.4 µM and the activation at 50 µM turned out to be 188%.

As to `O=C(Nc1ccccn1)OCCC1c2c(F)cccc2C(=O)N1Cc1ccc(F)cc1` (stereo not drawn) [Compound 16, Pyridin-2-yl-carbamic acid 2-[7-fluoro-2-(4-fluoro-benzyl)-3-oxo-2,3-dihydro-1H-isoindol-1-yl]-ethyl ester], the activation at 50 µM came to 13.8%.

`O=C(Nc1ccccn1)OCCC1c2cccc(F)c2C(=O)N1Cc1ccc(F)cc1` (stereo not drawn) [Compound 17, Pyridin-2-yl-carbamic acid 2-[4-fluoro-2-(4-fluoro-benzyl)-3-oxo-2,3-dihydro-1H-isoindol-1-yl]-ethyl ester] came in with an activation at 50 µM of 23.8%.

For `O=C(CCC1c2c(F)ccc(F)c2C(=O)N1Cc1ccc(F)cc1)Nc1ccc(C(F)(F)F)cn1` (stereo not drawn) [Compound 18, 3-[4,7-Difluoro-2-(4-fluoro-benzyl)-3-oxo-2,3-dihydro-1H-isoindol-1-yl]-N-(5-trifluoromethyl-pyridin-2-yl)-propionamide], the EC50 worked out at 2000 nM, the “EC100%” value was found to be 46 µM and the activation at 50 µM is 95%.

As for `COc1ccc(CN2C(=O)c3ccccc3C2COC(=O)Nc2ccccn2)cc1` (stereo not drawn) [Compound 19, Pyridin-2-yl-carbamic acid 2-(4-methoxy-benzyl)-3-oxo-2,3-dihydro-1H-isoindol-1-ylmethyl ester], the EC50 came out at 4800 nM, the “EC100%” value was 70 µM and the activation at 50 µM was determined as 115%.

Turning to `O=C(CCC1c2c(F)ccc(F)c2C(=O)N1Cc1ccc(F)cc1)Nc1ccc(C(=O)O)cn1` (stereo not drawn) [Compound 20, 6-{3-[4,7-Difluoro-2-(4-fluoro-benzyl)-3-oxo-2,3-dihydro-1H-isoindol-1-yl]-propionylamino}-nicotinic acid], the EC50 was determined as 203 nM, the “EC100%” value amounted to 0.65 µM and the activation at 50 µM turned out to be 302%.

Regarding `CCOC(=O)c1csc(NC(=O)CCC2c3c(F)ccc(F)c3C(=O)N2Cc2ccc(F)cc2)n1` (stereo not drawn) [Compound 21, 2-{3-[4,7-Difluoro-2-(4-fluoro-benzyl)-3-oxo-2,3-dihydro-1H-isoindol-1-yl]-propionylamino}thiazole-4-carboxylic acid ethyl ester], the EC50 stood at 3100 nM, the “EC100%” value amounted to 26.6 µM and the activation at 50 µM was found to be 94.4%.

Turning to `O=C(O)Cc1csc(NC(=O)CCC2c3c(F)ccc(F)c3C(=O)N2Cc2ccc(F)cc2)n1` (stereo not drawn) [Compound 22, (2-{3-[4,7-Difluoro-2-(4-fluoro-benzyl)-3-oxo-2,3-dihydro-1H-isoindol-1-yl]-propionylamino}-thiazol-4-yl)-acetic acid], the EC50 was 21000 nM, the “EC100%” value is 188 µM and the activation at 50 µM was found to be 73.7%.

`CCOC(=O)c1ccnc(NC(=O)CCC2c3c(F)cccc3C(=O)N2Cc2ccc(F)cc2)c1` (stereo not drawn) [Compound 23, 2-{3-[7-Fluoro-2-(4-fluoro-benzyl)-3-oxo-2,3-dihydro-1H-isoindol-1-yl]-propionylamino}-isonicotinic acid ethyl ester] returned an activation at 50 µM of 30.6%.

The compound `COc1ccc(CN2C(=O)c3ccccc3C2CNC(=O)Nc2ccccn2)cc1` (stereo not drawn) [Compound 24, 1-[2-(4-Methoxy-benzyl)-3-oxo-2,3-dihydro-1H-isoindol-1-ylmethyl]-3-pyridin-2-yl-urea] came in with an activation at 50 µM of 4.39%.

The compound `O=C(CCC1c2c(F)ccc(F)c2C(=O)N1Cc1ccc(F)cc1)Nc1nc(C(=O)O)cs1` (stereo not drawn) [Compound 25, 2-{3-[4,7-Difluoro-2-(4-fluoro-benzyl)-3-oxo-2,3-dihydro-1H-isoindol-1-yl]-propionylamino}-thiazole-4-carboxylic acid] came in with an activation at 50 µM of 72.5%.

For the compound `COC(=O)c1ccc(NC(=O)CCC2c3c(F)cccc3C(=O)N2Cc2ccc(F)cc2)nc1` (stereo not drawn) [Compound 26, 6-{3-[7-Fluoro-2-(4-fluoro-benzyl)-3-oxo-2,3-dihydro-1H-isoindol-1-yl]-propionylamino}-nicotinic acid methyl ester], the EC50 was 25 nM, the “EC100%” value stood at 0.46 µM and the activation at 50 µM worked out at 173%.

With `O=C(CCC1c2c(F)cccc2C(=O)N1Cc1ccc(F)cc1)Nc1ncc(Br)s1` (stereo not drawn) [Compound 27, N-(5-Bromo-thiazol-2-yl)-3-[7-fluoro-2-(4-fluoro-benzyl)-3-oxo-2,3-dihydro-1H-isoindol-1-yl]-propionamide], the EC50 is 40000 nM and the activation at 50 µM is 65%.

In the case of `O=C(CCC1c2c(F)cccc2C(=O)N1Cc1ccc(F)cc1)Nc1ccc2ccccc2n1` (stereo not drawn) [Compound 28, 3-[7-Fluoro-2-(4-fluoro-benzyl)-3-oxo-2,3-dihydro-1H-isoindol-1-yl]-N-quinolin-2-yl-propionamide], the EC50 came to 130 nM, the “EC100%” value stood at 6.3 µM and the activation at 50 µM is 120%.
